Values of other authors in US10434198B2, “Radiopharmaceutical solutions with advantageous properties” (Sciencons AS, priority 2015, dated 2019).

Assays:
[1] = 10 minutes after injection
MDA-MB-231 (SA) = settings: 250 kBq/kg (3.6×10^11 ^223Ra atoms), Suominen et al. 2013

SMILES | reduction of radium in blood [1] [%] | survival advantage (MDA-MB-231 (SA)) [%]
[Ra] [radium] | 88 | 
[Cl][223Ra][Cl] [^223Ra, radium-223 dichloride] |  | 43
